# Source: US20240182513A1, “SEPARATION OF METAL IONS FROM A SAMPLE USING GLYCOLIPIDS” (ARIZONA BOARD OF REGENTS ON BEHALF OF THE UNIVERSITY OF …, priority 2021, published 2024)
# Tests used:
# [1] = Example 2.1 rhamnolipid precipitation, filtration, centrifugation: lead; conditions: for Treatment 2: Rhamnolipid and Filtration Cf / Treatment 3: Rhamnolipid and Centrifugation Cc / Treatment 1: Rhamnolipid Only Cr: lead concentration after treatment; for Treatment 1: Rhamnolipid Only (Rr) efficiency of removal / Treatment 2: Rhamnolipid and Filtration (Rf) efficiency of removal / Treatment 3: Rhamnolipid and Centrifugation (Rc) efficiency of removal: lead
# Experimental: (§1) Structural variants of synthetic glycolipids were used to show the effect of the number and length of the hydrophobic tail(s) on rhamnolipid as a chemical precipitant. […] Solutions (10 mM) were made using nanopure water (≥18 MΩ-cm) then adjusted to a pH of 6.9±0.05 with HNO3 and NaOH. These solutions were made in advance and stored in the cold room for up to one month. They were brought to room temperature before each experiment.
# (§2) Three metals were tested for binding with rhamnolipid. Lead as […] (Fisher Scientific, Waltham, MA, 99% purity), was chosen to represent a metal with high rhamnolipid-metal conditional stability constant; lanthanum as La(NO3)3 6(H2O) (Sigma-Aldrich, St. Louis, MO, 99.99% purity) was chosen as a representative REE; and magnesium as Mg(NO3)2 6(H2O) (Sigma-Aldrich, St. Louis, MO, 99% purity) was chosen to represent a metal with a low rhamnolipid-metal conditional stability constant (Hogan et al., 2017). Metal solutions (5 mM) were made using nanopure water (≥18 MΩ-cm) in 20 ml glass scintillation vials. All solutions were used within 15 min to ensure minimal adsorption to the glass vial.
# (§3) Three glycolipid-based treatments were evaluated to remove metal from solution: (1) the addition of glycolipid with no further treatment (gravitational precipitation), (2) the addition of a glycolipid followed by filtration or (3) the addition of a glycolipid followed by centrifugation. Each metal (Pb, La, and Mg) was evaluated separately with each of the glycolipid structures. For each experiment, a metal solution was mixed with a glycolipid solution in a 1.7 ml reaction tube at varying molar ratios of glycolipid to metal: 0:1 (glycolipid-free control), 2:1, 5:1, and 10:1. The reactions were mixed in the order of nanopure water (≥18 MΩ-cm), glycolipid solution (10 mM), then metal solution (5 mM). The metal and glycolipid solutions were continuously stirred as they were aliquoted into the reaction tubes. The experiment was performed in triplicate.
# (§4) The reaction tubes were mixed overnight (16 to 24 h) and then three samples were collected from each tube to measure the effect of each of the three treatments: a glycolipid only treatment sample, a filtration treatment sample, and a centrifugation treatment sample. Briefly, for the glycolipid only treatment samples all tubes were vortexed for approximately 5 sec immediately before removing 0.1 ml into a dilution tube of 2% trace metal grade nitric acid (12 to 14 ml) to minimize the settling of particles. For the filtration samples each reaction tube was vortexed for 5 sec and then a 0.6 ml aliquot was collected with a 1 ml syringe. A GHP acrodisc disk filter (hydrophilic polypropylene membrane, 0.45 μm pore size, 25 mm disc diameter) from Pall Life Sciences (Port Washington, New York) was then placed onto the end of the syringe and the solution was pushed through the filter. The void space in the disk filter holds approximately 0.5 ml, therefore around 0.1 ml of filtrate was collected into a dilution tube. For the centrifugation sample, the remaining solution was centrifuged at 10,000 RCF for 15 min. Approximately 0.1 ml of the supernatant was aliquoted into a dilution tube. Following collection, all samples were taken for metal analysis using ICP-MS.
# [2] = Example 2.1 rhamnolipid precipitation, filtration, centrifugation: lanthanum; conditions: for Treatment 2: Rhamnolipid and Filtration Cf / Treatment 3: Rhamnolipid and Centrifugation Cc / Treatment 1: Rhamnolipid Only Cr: lanthanum concentration after treatment; for Treatment 1: Rhamnolipid Only (Rr) efficiency of removal / Treatment 2: Rhamnolipid and Filtration (Rf) efficiency of removal / Treatment 3: Rhamnolipid and Centrifugation (Rc) efficiency of removal: lanthanum
# Experimental: as §1, §2, §3, §4
# [3] = Example 2.1 rhamnolipid precipitation, filtration, centrifugation: magnesium; conditions: for Treatment 2: Rhamnolipid and Filtration Cf / Treatment 3: Rhamnolipid and Centrifugation Cc / Treatment 1: Rhamnolipid Only Cr: magnesium concentration after treatment; for Treatment 1: Rhamnolipid Only (Rr) efficiency of removal / Treatment 2: Rhamnolipid and Filtration (Rf) efficiency of removal / Treatment 3: Rhamnolipid and Centrifugation (Rc) efficiency of removal: magnesium
# Experimental: as §1, §2, §3, §4
smiles,measurement,setting,value
CCCCCCCCCCCCCCCC(CC(=O)O)OC1O[C@@H](C)[C@H](O)[C@@H](O)[C@H]1O (stereo partly shown) [Rha C18],Treatment 2: Rhamnolipid and Filtration Cf,[1]; molar ratio 2 to 1,0.027 ± 0.001 mmol/L
same,Treatment 3: Rhamnolipid and Centrifugation Cc,[1]; molar ratio 2 to 1,0.132 ± 0.001 mmol/L
same,Treatment 1: Rhamnolipid Only Cr,[1]; molar ratio 5 to 1,0.044 ± 0.008 mmol/L
same,Treatment 2: Rhamnolipid and Filtration Cf,[1]; molar ratio 5 to 1,0.000 ± 0.002 mmol/L
same,Treatment 3: Rhamnolipid and Centrifugation Cc,[1]; molar ratio 5 to 1,0.005 ± 0.002 mmol/L
same,Treatment 1: Rhamnolipid Only Cr,[1]; molar ratio 10 to 1,0.255 ± 0.015 mmol/L
same,Treatment 2: Rhamnolipid and Filtration Cf,[1]; molar ratio 10 to 1,0.000 ± 0.001 mmol/L
same,Treatment 3: Rhamnolipid and Centrifugation Cc,[1]; molar ratio 10 to 1,0.014 ± 0.001 mmol/L
same,Treatment 1: Rhamnolipid Only Cr,[1]; molar ratio rhamnolipid:lead 2 to 1,0.123 ± 0.002 mmol/L
same,Treatment 1: Rhamnolipid Only (Rr) efficiency of removal,[1]; molar ratio 2 to 1,(54.8%)
same,Treatment 2: Rhamnolipid and Filtration (Rf) efficiency of removal,[1]; molar ratio 2 to 1,(90.1%)
same,Treatment 3: Rhamnolipid and Centrifugation (Rc) efficiency of removal,[1]; molar ratio 2 to 1,(51.6%)
same,Treatment 1: Rhamnolipid Only (Rr) efficiency of removal,[1]; molar ratio 5 to 1,(83.9%)
same,Treatment 2: Rhamnolipid and Filtration (Rf) efficiency of removal,[1]; molar ratio 5 to 1,(99.9%)
same,Treatment 3: Rhamnolipid and Centrifugation (Rc) efficiency of removal,[1]; molar ratio 5 to 1,(98.1%)
same,Treatment 1: Rhamnolipid Only (Rr) efficiency of removal,[1]; molar ratio 10 to 1,(6.2%)
same,Treatment 2: Rhamnolipid and Filtration (Rf) efficiency of removal,[1]; molar ratio 10 to 1,(99.9%)
same,Treatment 3: Rhamnolipid and Centrifugation (Rc) efficiency of removal,[1]; molar ratio 10 to 1,(94.7%)
same,Treatment 2: Rhamnolipid and Filtration Cf,[2]; molar ratio 2 to 1,0.116 ± 0.029 mmol/L
same,Treatment 3: Rhamnolipid and Centrifugation Cc,[2]; molar ratio 2 to 1,0.228 ± 0.013 mmol/L
same,Treatment 1: Rhamnolipid Only Cr,[2]; molar ratio 5 to 1,0.121 ± 0.009 mmol/L
same,Treatment 2: Rhamnolipid and Filtration Cf,[2]; molar ratio 5 to 1,0.001 ± 0.002 mmol/L
same,Treatment 3: Rhamnolipid and Centrifugation Cc,[2]; molar ratio 5 to 1,0.088 ± 0.003 mmol/L
same,Treatment 1: Rhamnolipid Only Cr,[2]; molar ratio 10 to 1,0.331 ± 0.024 mmol/L
same,Treatment 2: Rhamnolipid and Filtration Cf,[2]; molar ratio 10 to 1,0.004 ± 0.001 mmol/L
same,Treatment 3: Rhamnolipid and Centrifugation Cc,[2]; molar ratio 10 to 1,0.051 ± 0.010 mmol/L
same,Treatment 1: Rhamnolipid Only Cr,[2]; molar ratio rhamnolipid:lanthanum 2 to 1,0.249 ± 0.009 mmol/L
same,Treatment 1: Rhamnolipid Only (Rr) efficiency of removal,[2]; molar ratio 2 to 1,(16.5%)
same,Treatment 2: Rhamnolipid and Filtration (Rf) efficiency of removal,[2]; molar ratio 2 to 1,(61.1%)
same,Treatment 3: Rhamnolipid and Centrifugation (Rc) efficiency of removal,[2]; molar ratio 2 to 1,(23.4%)
same,Treatment 1: Rhamnolipid Only (Rr) efficiency of removal,[2]; molar ratio 5 to 1,(59.4%)
same,Treatment 2: Rhamnolipid and Filtration (Rf) efficiency of removal,[2]; molar ratio 5 to 1,(99.5%)
same,Treatment 3: Rhamnolipid and Centrifugation (Rc) efficiency of removal,[2]; molar ratio 5 to 1,(70.6%)
same,Treatment 2: Rhamnolipid and Filtration (Rf) efficiency of removal,[2]; molar ratio 10 to 1,(98.8%)
same,Treatment 3: Rhamnolipid and Centrifugation (Rc) efficiency of removal,[2]; molar ratio 10 to 1,(82.8%)
same,Treatment 2: Rhamnolipid and Filtration Cf,[3]; molar ratio 2 to 1,0.169 ± 0.015 mmol/L
same,Treatment 3: Rhamnolipid and Centrifugation Cc,[3]; molar ratio 2 to 1,0.216 ± 0.002 mmol/L
same,Treatment 1: Rhamnolipid Only Cr,[3]; molar ratio 5 to 1,0.215 ± 0.002 mmol/L
same,Treatment 2: Rhamnolipid and Filtration Cf,[3]; molar ratio 5 to 1,0.056 ± 0.012 mmol/L
same,Treatment 3: Rhamnolipid and Centrifugation Cc,[3]; molar ratio 5 to 1,0.141 ± 0.001 mmol/L
same,Treatment 1: Rhamnolipid Only Cr,[3]; molar ratio 10 to 1,0.304 ± 0.001 mmol/L
same,Treatment 2: Rhamnolipid and Filtration Cf,[3]; molar ratio 10 to 1,0.017 ± 0.002 mmol/L
same,Treatment 3: Rhamnolipid and Centrifugation Cc,[3]; molar ratio 10 to 1,0.107 ± 0.004 mmol/L
same,Treatment 1: Rhamnolipid Only Cr,[3]; molar ratio rhamnolipid:magnesium 2 to 1,0.265 ± 0.002 mmol/L
same,Treatment 1: Rhamnolipid Only (Rr) efficiency of removal,[3]; molar ratio 2 to 1,(12.1%)
same,Treatment 2: Rhamnolipid and Filtration (Rf) efficiency of removal,[3]; molar ratio 2 to 1,(37.0%)
same,Treatment 3: Rhamnolipid and Centrifugation (Rc) efficiency of removal,[3]; molar ratio 2 to 1,(20.5%)
same,Treatment 1: Rhamnolipid Only (Rr) efficiency of removal,[3]; molar ratio 5 to 1,(19.5%)
same,Treatment 2: Rhamnolipid and Filtration (Rf) efficiency of removal,[3]; molar ratio 5 to 1,(79.0%)
same,Treatment 3: Rhamnolipid and Centrifugation (Rc) efficiency of removal,[3]; molar ratio 5 to 1,(47.4%)
same,Treatment 2: Rhamnolipid and Filtration (Rf) efficiency of removal,[3]; molar ratio 10 to 1,(93.7%)
same,Treatment 3: Rhamnolipid and Centrifugation (Rc) efficiency of removal,[3]; molar ratio 10 to 1,(60.1%)
